How the values were obtained:
[1] = Excitation and fluorescence wavelength by FL4500 fluorescence spectrophotometer; conditions: for λem / λex: 10 mg/mL DMSO solution diluted 500-fold with distilled water
[2] = system: central nervous system tissues of juvenile zebrafish (7 dpf); experiment: Labeling the central nervous system tissue of live 7 dpf juvenile zebrafish by immersion in labeling solution
Experimental: Subsequently, the labeling solution 1 in the well was removed and replaced by 1 mL of distilled water. This operation was repeated three times. Then, juvenile zebrafish was removed from the well and embedded in 5% low melting point agarose gel on a slide glass so as to restrict movement, and the state of labeling in the central nervous system tissues were observed from the lateral side of zebrafish by a fluorescence stereomicroscope (manufactured by Leica Microsystems, MZ16FA). Also, the brain nerve tissues were observed from the parietal region by a confocal microscope (manufactured by Carl Zeiss, Inc., Pascal Exciter).

[3] = system: brain of juvenile zebrafish; conditions: according to Patent Literature 3; cited from earlier work
[4] = system: mouse brain tissue section; experiment: Labeling of a mouse brain tissue section, confocal microscope; conditions: 3-month-old B10 mouse, 10 μm frozen section, 1 ug/mL in PBS, incubation one hour
Experimental: (§1) A 3-month-old B10 mouse was sacrificed by diethyl ether anesthesia, and the brain is collected. The brain thus removed is embedded in an OCT compound, and then frozen in isopentane cooled with liquid nitrogen. The resulting brain was sliced into thin sections of approximately 10 μm in thickness in a cryostat cooled to −20° C. The thin sections were then placed on a slide glass and dried, whereby a section of the brain tissue was prepared. To the section of […] tissue thus prepared, a 1 ug/mL solution of the compound (13) in PBS was added, followed by incubation for one hour. After one hour, the slide glass was washed with PBST (PBS containing 0.2% Triton-X100) three times, and then sealed with a cover glass. Upon observation of the slide glass by a confocal microscope (manufactured by Carl Zeiss, Inc., Pascal
as §1, with “(27)” for “(13)”, “After one hour, the slide glass was washed with PBST (PBS containing 0.2% Triton-X100) three times, and then sealed with a cover glass. Upon observation of the slide glass by a confocal microscope (manufactured by Carl Zeiss, Inc., Pascal” left out

mouse brain = experiment: Labeling of mouse brain after intraperitoneal administration; format: in vivo; conditions: 3-month-old B10 mouse, 0.2 ml single intraperitoneal dose, brain collected after one hour
Experimental: The compound (13) is added to an equimolar solution of NaOH so that a concentration of 10 mg/ml is reached, and the resulting mixture is centrifuged at 14 krpm for five minutes to obtain a supernatant. Then, 0.2 ml of the supernatant thus obtained is intraperitoneally administered to a 3-month-old B10 mouse in a single dose. After one hour, the animal thus treated is sacrificed by diethyl ether anesthesia, and the brain is collected. The brain thus removed is embedded in an OCT compound, and then frozen in isopentane cooled with liquid nitrogen. The resulting brain was sliced into thin sections of approximately 10 μm in thickness in a cryostat cooled to −20° C. The thin sections were then placed on a slide glass and dried, whereby a section of the brain tissue was prepared. The brain tissue section thus prepared was observed under a confocal microscope (manufactured by Carl Zeiss, Inc., Pascal Exciter).
After one hour, the animal thus treated is sacrificed by diethyl ether anesthesia, and the brain is collected. The brain thus removed is embedded in an OCT compound, and then frozen in isopentane cooled with liquid nitrogen. The resulting brain was sliced into thin sections of approximately 10 μm in thickness in a cryostat cooled to −20° C. The thin sections were then placed on a slide glass and dried, whereby a section of the brain tissue was prepared. […]

[5] = 5 ηM DMSO solution (Examples 35 to 46)
[6] = 7 dpf juvenile zebrafish, labeling solution 1 μg/mL, one hour
[7] = aqueous solution, 10 mg/mL DMSO solution diluted 500-fold with distilled water (Table 2)
[8] = juvenile zebrafish, labeling solution 1 μg/mL, one hour (Table 2)
[9] = 7 dpf juvenile zebrafish, labeling solution 1 μg/mL, one hour (Table 3)
[10] = 5 μM chloroform solution (Examples 30 to 34)

CCN1CCc2cc(/C=C3/SC(=S)N(CCC(=O)O)C3=O)ccc21 [Compound 45]
Excitation wavelength λex [1, 5]: 510
Fluorescence wavelength λem [1, 5]: 597
Fluorescence sensitivity ([2]; 7 dpf juvenile zebrafish, labeling solution 45 with 3 μg/mL dye compound, one hour (Table 3)): +

Cn1c(=O)cc2c3c(c(NC4CCCCC4)ccc31)C(=O)c1ccccc1-2 [(8)]
λem ([1]; aqueous solution): 619
λex ([1]; aqueous solution): 599
Labeling property [2, 6]: ++
State of labeling of optic nerve, optic tract, superior colliculus (optic tectum), pituitary gland, tectospinal (tectobulbar) tract and reticular formation ([2]; 7 dpf juvenile zebrafish, one hour, fluorescence stereomicroscope and confocal microscope): intensely labeled

N=c1oc2ccc3ccccc3c2cc1-c1nc2ccccc2[nH]1 [Compound 17]
Excitation wavelength λex [1, 7]: 410
Fluorescence wavelength λem [1, 7]: 490
Stokes shift λem − λex [1, 7]: 80
Fluorescence sensitivity [2, 8]: +
Labeling property [2, 8]: +

CCN(CC)c1ccc2cc3c(oc2c1)c(C#N)c(=O)n1c2ccccc2nc31 [(11)]
λem ([1]; aqueous solution): 576
λex ([1]; aqueous solution): 555
Labeling property [2, 6]: +

CCN(CC)c1ccc2cc3c(oc2c1)c(C#N)c(=N)n1c2ccccc2nc31 [(10)]
λem ([1]; aqueous solution): 577
λex ([1]; aqueous solution): 556
Labeling property [2, 6]: ++

Cc1cc(-c2ccc(/N=N/c3ccc4c(S(=O)(=O)O)cc(S(=O)(=O)O)c(N)c4c3O)c(C)c2)ccc1/N=N/c1ccc2c(S(=O)(=O)O)cc(S(=O)(=O)O)c(N)c2c1O [Evans blue]
Migration of administered dye into the brain confirmed up to [3]: up to 4 dpf

O=C(O)CCN1C(=O)/C(=C\c2ccc3c(c2)C2CCCC2N3Cc2ccccc2)SC1=S (stereo not drawn) [Compound 36]
Excitation wavelength λex [1, 5]: 510
Fluorescence wavelength λem [1, 5]: 584
Fluorescence sensitivity [2, 9]: +

CN1c2ccc(/C=C3/SC(=S)N(CCC(=O)O)C3=O)cc2C2CCCC21 (stereo not drawn) [Compound 39]
Excitation wavelength λex [1, 5]: 517
Fluorescence wavelength λem [1, 5]: 590
Fluorescence sensitivity [2, 9]: ++

CCCCOCCCNc1ccc2c3c(cc(=O)n2CCCC)-c2ccccc2C(=O)c13 [Compound 33]
Excitation wavelength λex [1, 10]: 544
Fluorescence wavelength λem [1, 10]: 573
Fluorescence sensitivity [2, 9]: +

CCN(CC)c1ccc2cc(-c3nc4cc(Cl)ccc4o3)c(=O)oc2c1 [Compound 23]
Excitation wavelength λex [1, 7]: 422
Fluorescence wavelength λem [1, 7]: 476
Stokes shift λem − λex [1, 7]: 54
Fluorescence sensitivity [2, 8]: +
Labeling property [2, 8]: ++

CCN1C(=S)N(c2ccccc2)C(=O)/C1=C/C=C1/Sc2ccccc2N1CC [(14)]
λem ([1]; aqueous solution): 560
λex ([1]; aqueous solution): 530
Labeling property [2, 6]: ++

CCCCNc1ccc2c3c(cccc13)C(=O)N(CCCC)C2=O [(12)]
λem ([1]; aqueous solution): 551
λex ([1]; aqueous solution): 466
Labeling property [2, 6]: ++

O=C1OC2(c3ccc(O)cc3Oc3cc(O)ccc32)c2ccccc21 [Fluorescein, reference compound]
Migration of administered dye into the brain confirmed up to [3]: ≤ 8 dpf
Labeling property [2, 6]: −

CCCCC(CC)CNc1ccc2c3c(cc(=O)n2CCCC)-c2ccccc2C(=O)c13 (stereo not drawn) [Compound 31]
Excitation wavelength λex [1, 10]: 547
Fluorescence wavelength λem [1, 10]: 574
Fluorescence sensitivity [2, 9]: +

CSc1ccc(N2c3ccc(/C=C4/SC(=S)N(CCC(=O)O)C4=O)cc3C3CCCC32)cc1 (stereo not drawn) [Compound 44]
Excitation wavelength λex [1, 5]: 518
Fluorescence wavelength λem [1, 5]: 647
Fluorescence sensitivity [2, 9]: ++

COc1cccc2cc(-c3nc4ccccc4[nH]3)c(=O)oc12 [Compound 22]
Excitation wavelength λex [1, 7]: 360
Fluorescence wavelength λem [1, 7]: 510
Stokes shift λem − λex [1, 7]: 150
Fluorescence sensitivity [2, 8]: +
Labeling property [2, 8]: +

CCN(CC)c1ccc2cc(-c3nc4ccccc4[nH]3)c(=N)oc2c1 [Compound 18]
Excitation wavelength λex [1, 7]: 464
Fluorescence wavelength λem [1, 7]: 514
Stokes shift λem − λex [1, 7]: 50
Fluorescence sensitivity [2, 8]: ++
Labeling property [2, 8]: ++

O=C(O)CCN1C(=O)/C(=C\c2cc(Br)c3c(c2)C2CCCC2N3c2ccc(Br)cc2)SC1=S (stereo not drawn) [Compound 34]
Excitation wavelength λex [1, 5]: 474
Fluorescence wavelength λem [1, 5]: 590
Fluorescence sensitivity [2, 9]: +

O=C(O)CCN1C(=O)/C(=C\c2ccc3c(c2)C2CCCC2N3c2ccccc2)SC1=S (stereo not drawn) [Compound 37]
Excitation wavelength λex [1, 5]: 502
Fluorescence wavelength λem [1, 5]: 604
Fluorescence sensitivity [2, 9]: ++

O=C1c2ccccc2-c2cc(=O)n(C3CCCCC3)c3ccc(NC4CCCCC4)c1c23 [Compound 29]
Excitation wavelength λex [1, 10]: 547
Fluorescence wavelength λem [1, 10]: 592
Fluorescence sensitivity [2, 9]: +

CCN(CC)c1ccc2cc(-c3nc4ccccc4s3)c(=O)oc2c1 [Compound 15]
Excitation wavelength λex [1, 7]: 469
Fluorescence wavelength λem [1, 7]: 555
Stokes shift λem − λex [1, 7]: 86
Fluorescence sensitivity [2, 8]: ++
Labeling property [2, 8]: ++

CCN(CC)c1ccc2cc(-c3nc4ccc(C)cc4o3)c(=O)oc2c1 [Compound 27]
Labeling property in a mouse brain tissue section [4]: confirmed to exert a labeling property
Excitation wavelength λex [1, 7]: 472
Fluorescence wavelength λem [1, 7]: 504
Stokes shift λem − λex [1, 7]: 32
Fluorescence sensitivity [2, 8]: ++
Labeling property [2, 8]: ++

COc1ccc(N2c3ccc(/C=C4/SC(=S)N(CCC(=O)O)C4=O)cc3C3CCCC32)cc1 (stereo not drawn) [Compound 35]
Excitation wavelength λex [1, 5]: 521
Fluorescence wavelength λem [1, 5]: 634
Fluorescence sensitivity [2, 9]: ++

COc1ccc2cc(-c3nc4ccccc4[nH]3)c(=N)oc2c1 [Compound 16]
Excitation wavelength λex [1, 7]: 380
Fluorescence wavelength λem [1, 7]: 470
Stokes shift λem − λex [1, 7]: 90
Fluorescence sensitivity [2, 8]: +
Labeling property [2, 8]: +

Cn1c(=O)cc2c3c(c(NCc4ccccc4)ccc31)C(=O)c1ccccc1-2 [(9)]
λem ([1]; aqueous solution): 556
λex ([1]; aqueous solution): 480
Labeling property [2, 6]: ++

CCCN1c2ccc(/C=C3/SC(=S)N(CCC(=O)O)C3=O)cc2C2CCCC21 (stereo not drawn) [Compound 42]
Excitation wavelength λex [1, 5]: 519
Fluorescence wavelength λem [1, 5]: 592
Fluorescence sensitivity [2, 9]: ++

CCCCn1c(=O)cc2c3c(c(NCCC4=CCCCC4)ccc31)C(=O)c1ccccc1-2 [Compound 32]
Excitation wavelength λex [1, 10]: 544
Fluorescence wavelength λem [1, 10]: 573
Fluorescence sensitivity [2, 9]: +

rhodamine 123
Migration of administered dye into the brain confirmed up to [3]: ≤ 5 dpf

CCN1c2ccc(/C=C3/SC(=S)N(CCC(=O)O)C3=O)cc2C2CCCC21 (stereo not drawn) [(13)]
Labeling property in a mouse brain tissue section [4]: confirmed to exert a labeling property
Labeling property in a mouse brain by intraperitoneal administration (mouse brain): confirmed to exert a labeling property
λem ([1]; aqueous solution): 604
λex ([1]; aqueous solution): 576
Labeling property [2, 6]: ++

CCn1c2ccccc2c2cc(/C=C3/SC(=S)N(CCC(=O)O)C3=O)ccc21 [Compound 41]
Excitation wavelength λex [1, 5]: 452
Fluorescence wavelength λem [1, 5]: 540
Fluorescence sensitivity [2, 9]: +

COc1ccc2cc(-c3nc4ccccc4[nH]3)c(=O)oc2c1 [Compound 20]
Excitation wavelength λex [1, 7]: 380
Fluorescence wavelength λem [1, 7]: 470
Stokes shift λem − λex [1, 7]: 90
Fluorescence sensitivity [2, 8]: +
Labeling property [2, 8]: +

CCCN(CCC)c1ccc2cc(-c3nc4ccccc4[nH]3)c(=O)oc2c1 [Compound 25]
Excitation wavelength λex [1, 7]: 463
Fluorescence wavelength λem [1, 7]: 509
Stokes shift λem − λex [1, 7]: 46
Fluorescence sensitivity [2, 8]: ++
Labeling property [2, 8]: ++

O=c1oc2ccc3ccccc3c2cc1-c1nc2ccccc2[nH]1 [Compound 28]
Excitation wavelength λex [1, 7]: 410
Fluorescence wavelength λem [1, 7]: 540
Stokes shift λem − λex [1, 7]: 130
Fluorescence sensitivity [2, 8]: +
Labeling property [2, 8]: +

CCN1c2ccc(/C=C/C=C3/SC(=S)N(CCC(=O)O)C3=O)cc2C2CCCC21 (stereo not drawn) [Compound 43]
Excitation wavelength λex [1, 5]: 564
Fluorescence wavelength λem [1, 5]: 671
Fluorescence sensitivity [2, 9]: ++

COc1ccc2cc(N3c4ccc(/C=C5/SC(=S)N(CCC(=O)O)C5=O)cc4C4CCCC43)ccc2c1 (stereo not drawn) [Compound 38]
Excitation wavelength λex [1, 5]: 521
Fluorescence wavelength λem [1, 5]: 646
Fluorescence sensitivity [2, 9]: +

Cc1ccc2oc(=O)c(-c3nc4ccccc4[nH]3)cc2c1 [Compound 24]
Excitation wavelength λex [1, 7]: 380
Fluorescence wavelength λem [1, 7]: 490
Stokes shift λem − λex [1, 7]: 110
Fluorescence sensitivity [2, 8]: +
Labeling property [2, 8]: +

CCN1c2ccc(/C=C3/SC(=S)N(CCC(=O)O)C3=O)cc2CC1C (stereo not drawn) [Compound 40]
Excitation wavelength λex [1, 5]: 509
Fluorescence wavelength λem [1, 5]: 593
Fluorescence sensitivity [2, 9]: ++

CCCCn1c(=O)cc2c3c(c(NC4CCCCC4)ccc31)C(=O)c1ccccc1-2 [Compound 30]
Excitation wavelength λex [1, 10]: 548
Fluorescence wavelength λem [1, 10]: 575
Fluorescence sensitivity [2, 9]: +
